# According to patent publication US8921363B2, “Derivatives of 1 H-isoindol-3-amine, 1 H-iso-aza-indol-3amine, 3,4-dihydroisoquinolin-1-amine, and 1,4-dihydroisoquinolin-3-amine as beta-secretase inhibitors” (Amgen Inc., priority 2010, dated 2014):
# pIC50: −log10 of the molar value.
# Legend:
# [1] = target: BACE1 (Homo sapiens, UniProt P56817); assay: In vitro enzymatic BACE FRET assay; type: biochemical
# Procedure: In Vitro Enzymatic BACE FRET (fluorescence resonance energy transfer) Assay (Enzyme Assay data in the Example Table I)
# The assay buffer used in this screen is 0.05 M acetate, pH 4.2, 10% DMSO final, 100 uM genapol (which is a nonionic detergent, below its Critical Micelle Concentration). […] This assay is effectively started by the addition of FRET substrate (50 nM) and the combination is incubated for one hour. The FRET assay is terminated with by addition of Tris buffer, which raises the pH to neutrality, and the fluorescence is determined. The FRET substrate is a peptide with commercially available fluorophore and quencher, on opposite sides of the BACE cleavage site. Proteolytic cleavage of the FRET substrate releases quenching of fluorescence (excitation […] and […]).
# [2] = system: Aβ40 in conditioned medium of cells expressing amyloid precursor protein; assay: In vitro BACE cell-based assay (HEK cell assay, Aβ40 sandwich ELISA); conditions: Homo sapiens, HEK293; average IC50; Aβ40 after 24 h incubation
# BACE1, sequence (P56817 46-501): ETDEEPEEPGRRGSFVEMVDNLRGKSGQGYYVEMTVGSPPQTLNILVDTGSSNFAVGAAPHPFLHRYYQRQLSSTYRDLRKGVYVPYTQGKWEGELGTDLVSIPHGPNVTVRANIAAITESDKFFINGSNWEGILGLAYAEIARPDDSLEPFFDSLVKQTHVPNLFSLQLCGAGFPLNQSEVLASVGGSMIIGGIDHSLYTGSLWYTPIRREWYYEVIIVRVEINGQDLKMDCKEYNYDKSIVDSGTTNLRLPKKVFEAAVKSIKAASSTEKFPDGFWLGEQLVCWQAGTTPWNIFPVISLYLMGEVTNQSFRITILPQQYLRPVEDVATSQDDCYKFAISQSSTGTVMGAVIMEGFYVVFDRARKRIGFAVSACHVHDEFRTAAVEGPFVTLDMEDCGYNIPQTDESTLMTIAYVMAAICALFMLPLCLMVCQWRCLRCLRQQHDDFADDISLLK
SMILES,pIC50 [1],pIC50 [2]
"NC1=NC2(c3cc(-c4cccnc4F)ccc3Oc3c2cc(N2CCOCC2)nc3F)c2ccccc21 (racemic) [Example 8, 1-fluoro-7-(2-fluoropyridin-3-yl)-3-morpholinospiro[chromeno[2,3-c]pyridine-5,1′-isoindol]-3′-amine]",8.38,7.85
"NC1=NC2(c3cc(-c4cccnc4F)ccc3Oc3c2cc(N2CCC(F)(F)C2)nc3F)c2ccccc21 (racemic) [Example 9, 3-(3,3-difluoropyrrolidin-1-yl)-1-fluoro-7-(2-fluoropyridin-3-yl)spiro[chromeno[2,3-c]pyridine-5,1′-isoindol]-3′-amine]",8.28,7.57
"NC1=NC2(c3cc(Br)ccc3Oc3cnc(Cl)cc32)c2ccccc21 (racemic) [Example 10c, 7-bromo-3-chlorospiro[chromeno[2,3-c]pyridine-5,1′-isoindol]-3′-amine]",5.16,7.19
"NC1=NC2(c3cc(-c4cccnc4F)ccc3Oc3cnc(Cl)cc32)c2ccccc21 (racemic) [Example 10d, 3-chloro-7-(2-fluoropyridin-3-yl)spiro[chromeno[2,3-c]pyridine-5,1′-isoindol]-3′-amine]",7.44,6.85
"CC(C)(C)C#Cc1cc2c(cn1)Oc1ccc(-c3cccnc3F)cc1C21N=C(N)c2ccccc21 (racemic) [Example 13, 3-(3,3-dimethylbut-1-ynyl)-7-(2-fluoropyridin-3-yl)spiro[chromeno[2,3-c]pyridine-5,1′-isoindol]-3′-amine]",8.22,7.15
"NC1=NC2(c3cc(-c4cccnc4F)ccc3Oc3cnc(Cl)cc32)c2ncccc2O1 (racemic) [Example 21, 3-chloro-7-(2-fluoropyridin-3-yl)spiro[chromeno[2,3-c]pyridine-5,4′-pyrido[2,3-e][1,3]oxazin]-2′-amine]",6.43,< 5.00
"NC1=N[C@@]2(c3cc(-c4cccnc4F)ccc3Oc3c2cc(-c2ccnc(F)c2)nc3F)c2ccccc21 (single isomer, unassigned) [Example 5-A]",7.74,5.73
"NC1=N[C@@]2(c3cc(-c4cccnc4F)ccc3Oc3c2cc(C2=CCCOC2)nc3F)c2ccccc21 (single isomer, unassigned) [Example 7-A]",7.11,6.47
"NC1=N[C@]2(c3cc(-c4cccnc4F)ccc3Oc3cnc(-c4cccnc4F)cc32)c2ccccc21 (single isomer, unassigned) [Example 10-C]",6.05,< 5.00
"NC1=N[C@@]2(c3cc(-c4cccnc4F)ccc3Oc3cnc(-c4cccnc4F)cc32)c2ccccc21 (single isomer, unassigned) [Example 10-D]",< 5.00,< 5.00
"NC1=N[C@@]2(c3cc(-c4cccnc4F)ccc3Oc3c2cc(-c2ccnc(F)c2)nc3F)c2cnccc21 (single isomer, unassigned) [Example 14-B]",6.97,5.61
"NC1=N[C@@]2(c3cc(Br)ccc3Oc3c2cc(Cl)nc3F)c2cnccc21 (single isomer, unassigned) [Example 14c-1]",< 5.00,< 5.00
"NC1=N[C@]2(c3cc(Br)ccc3Oc3c2cc(Cl)nc3F)c2cnccc21 (single isomer, unassigned) [Example 14c-2]",5.46,< 5.00
"NC1=N[C@@]2(c3cc(Br)ccc3Oc3c2cc(Cl)nc3F)c2cccnc21 (single isomer, unassigned) [Example 17c-1]",< 5.00,< 5.00
"NC1=N[C@]2(c3cc(Br)ccc3Oc3c2cc(Cl)nc3F)c2cccnc21 (single isomer, unassigned) [Example 17c-2]",5.46,< 5.00
"NC1=NC2(c3cc(-c4cccnc4F)ccc3Oc3c2cc(Cl)nc3F)c2ccccc21 (centres unmarked) [Example 5d, 3-chloro-1-fluoro-7-(2-fluoropyridin-3-yl)spiro[chromeno[2,3-c]pyridine-5,1′-isoindol]-3′-amine]",8.22,6.65
"NC1=NC2(c3cc(Br)ccc3Oc3c2cc(Cl)nc3F)c2cnccc21 (centres unmarked) [Example 14c, 7-bromo-3-chloro-1-fluorospiro[chromeno[2,3-c]pyridine-5,3′-pyrrolo[3,4-c]pyridin]-1′-amine]",5.34,< 5.00
"NC1=N[C@@]2(c3cc(-c4cccnc4F)ccc3Oc3c2cc(Cl)nc3F)c2cnccc21 [Example 14d-1, (R)-3-chloro-1-fluoro-7-(2-fluoropyridin-3-yl)spiro[chromeno[2,3-c]pyridine-5,3′-pyrrolo[3,4-c]pyridin]-1′-amine]",5.18,< 5.00

# Compounds with a higher pIC50 [1], results first:
pIC50 [1],pIC50 [2],SMILES
8.40,7.89,"NC1=NC2(c3cc(-c4cccnc4F)ccc3Oc3cnc(C4CCOCC4)cc32)c2ccccc21 (racemic) [Example 12, 7-(2-fluoropyridin-3-yl)-3-(tetrahydro-2H-pyran-4-yl)spiro[chromeno[2,3-c]pyridine-5,1′-isoindol]-3′-amine]"
8.43,6.11,"NC1=NC2(c3cc(-c4cccnc4F)ccc3Oc3c2cc(Cl)nc3F)c2cnccc21 (centres unmarked) [Example 14d, 3-chloro-1-fluoro-7-(2-fluoropyridin-3-yl)spiro[chromeno[2,3-c]pyridine-5,3′-pyrrolo[3,4-c]pyridin]-1′-amine]"
8.52,7.92,"NC1=NC2(c3cc(-c4cccnc4F)ccc3Oc3cnc(C4=CCOCC4)cc32)c2ccccc21 (racemic) [Example 11, 3-(3,6-dihydro-2H-pyran-4-yl)-7-(2-fluoropyridin-3-yl)spiro[chromeno[2,3-c]pyridine-5,1′-isoindol]-3′-amine]"
8.60,7.45,"NC1=N[C@]2(c3cc(-c4cccnc4F)ccc3Oc3c2cc(Cl)nc3F)c2cnccc21 [Example 14d-2, (S)-3-chloro-1-fluoro-7-(2-fluoropyridin-3-yl)spiro[chromeno[2,3-c]pyridine-5,3′-pyrrolo[3,4-c]pyridin]-1′-amine]"
8.70,6.91,"NC1=NC2(c3ccccc3O1)c1cc(-c3cccnc3F)ccc1Oc1cnc(C3=CCCOC3)cc12 (racemic) [Example 18, 3′-(5,6-dihydro-2H-pyran-3-yl)-7′-(2-fluoropyridin-3-yl)spiro[benzo[e][1,3]oxazine-4,5′-chromeno[2,3-c]pyridin]-2-amine]"
8.70,,"NC1=NC2(c3ccccc3O1)c1cc(-c3cccnc3F)ccc1Oc1cnc(-c3ccnc(F)c3)cc12 (centres unmarked) [Example 19, 7′-(2-fluoropyridin-3-yl)-3′-(2-fluoropyridin-4-yl)spiro[benzo[e][1,3]oxazine-4,5′-chromeno[2,3-c]pyridin]-2-amine]"
8.74,6.49,"NC1=NC2(c3cc(-c4cccnc4F)ccc3Oc3cnc(-c4ccnc(F)c4)cc32)c2cccnc2O1 (racemic) [Example 24, 7-(2-fluoropyridin-3-yl)-3-(2-fluoropyridin-4-yl)spiro[chromeno[2,3-c]pyridine-5,4-pyrido[3,2-e][1,3]oxazin]-2′-amine]"
9.00,8.10,"NC1=NC2(c3cc(-c4cccnc4F)ccc3Oc3c2cc(-c2ccnc(F)c2)nc3F)c2ccccc21 (racemic) [Example 5e, 1-fluoro-7-(2-fluoropyridin-3-yl)-3-(2-fluoropyridin-4-yl)spiro[chromeno[2,3-c]pyridine-5,1′-isoindol]-3′-amine]"
9.00,8.52,"NC1=NC2(c3cc(-c4cccnc4F)ccc3Oc3c2cc(C2=CCOCC2)nc3F)c2ccccc21 (racemic) [Example 6, 3-(3,6-dihydro-2H-pyran-4-yl)-1-fluoro-7-(2-fluoropyridin-3-yl)spiro[chromeno[2,3-c]pyridine-5,1′-isoindol]-3′-amine]"
9.00,7.89,"NC1=NC2(c3cc(-c4cccnc4F)ccc3Oc3c2cc(C2=CCCOC2)nc3F)c2ccccc21 (racemic) [Example 7, 3-(5,6-dihydro-2H-pyran-3-yl)-1-fluoro-7-(2-fluoropyridin-3-yl)spiro[chromeno[2,3-c]pyridine-5,1′-isoindol]-3′-amine]"
9.00,7.92,"NC1=NC2(c3cc(-c4cccnc4F)ccc3Oc3cnc(-c4ccnc(F)c4)cc32)c2ccccc21 (racemic) [Example 10, 7-(2-fluoropyridin-3-yl)-3-(2-fluoropyridin-4-yl)spiro[chromeno[2,3-c]pyridine-5,1′-isoindol]-3′-amine]"
9.00,7.96,"NC1=NC2(c3cc(-c4cccnc4F)ccc3Oc3c2cc(-c2ccnc(F)c2)nc3F)c2ncccc21 (racemic) [Example 15, 1-fluoro-7-(2-fluoropyridin-3-yl)-3-(2-fluoropyridin-4-yl)spiro[chromeno[2,3-c]pyridine-5,7′-pyrrolo[3,4-b]pyridin]-5′-amine]"
9.22,7.96,"NC1=N[C@]2(c3cc(-c4cccnc4F)ccc3Oc3c2cc(-c2ccnc(F)c2)nc3F)c2ccccc21 (single isomer, unassigned) [Example 5-B]"
9.30,8.70,"NC1=N[C@]2(c3cc(-c4cccnc4F)ccc3Oc3c2cc(C2=CCCOC2)nc3F)c2cnccc21 [Example 14-E, (S)-3-(5,6-dihydro-2H-pyran-3-yl)-1-fluoro-7-(2-fluoropyridin-3-yl)spiro[chromeno[2,3-c]pyridine-5,3′-pyrrolo[3,4-c]pyridin]-1′-amine]"
9.40,8.10,"NC1=N[C@]2(c3cc(-c4cccnc4F)ccc3Oc3c2cc(-c2ccnc(F)c2)nc3F)c2cnccc21 (single isomer, unassigned) [Example 14-A]"
